Test results taken from ChEMBL document CHEMBL1770145, “Synthesis of 5(6)-dihydro-OSW-1 analogs bearing three kinds of disaccharides linking at 15-hydroxy and their antitumor activities” (Bioorg Med Chem Lett, 2011).

Key:
Type in all cases: functional, cell-based
[1] = test system: BGC-823; assay: Cytotoxicity against human BGC823 cells by MTT assay
[2] = test system: Bel-7402; assay: Cytotoxicity against human Bel7402 cells by MTT assay
[3] = test system: A2780; assay: Cytotoxicity against human A2780 cells by MTT assay
[4] = test system: KETR3; assay: Cytotoxicity against human Ketr3 cells by MTT assay
[5] = test system: A549; assay: Cytotoxicity against human A549 cells by MTT assay
[6] = test system: MCF7; assay: Cytotoxicity against human MCF7 cells by MTT assay
[7] = test system: HCT-8; assay: Cytotoxicity against human HCT8 cells by MTT assay
[8] = test system: MCF7; assay: Cytotoxicity against human MCF7 cells
[9] = test system: AGS; assay: Cytotoxicity against human AGS cells
[10] = test system: Bel-7402; assay: Cytotoxicity against human Bel7402 cells

Compound | IC50 [1] [µM] | IC50 [2] [µM] | IC50 [3] [µM] | IC50 [4] [µM] | IC50 [5] [µM] | IC50 [6] [µM] | IC50 [7] [µM] | IC50 [8] [µM] | IC50 [9] [µM] | IC50 [10] [µM]
COc1ccc(C(=O)O[C@H]2[C@H](O[C@H]3CO[C@@H](O[C@H]4CC([C@H](C)C(=O)CC[C@@H](C)CO)[C@@]5(C)CC[C@H]6[C@@H](CC[C@H]7C[C@@H](O)CC[C@@]76C)[C@H]45)[C@H](OC(C)=O)[C@H]3O)OC[C@@H](O)[C@@H]2O)cc1 (stereo partly specified) | > 10 | > 10 | > 10 | > 10 | > 10 | > 10 | > 10 | – | – | –
COc1ccc(C(=O)O[C@H]2[C@H](O[C@@H]3[C@@H](OC(C)=O)[C@H](O[C@H]4CC([C@H](C)C(=O)CC[C@@H](C)CO)[C@@]5(C)CC[C@H]6[C@@H](CC[C@H]7C[C@@H](O)CC[C@@]76C)[C@H]45)OC[C@@H]3O)OC[C@@H](O)[C@@H]2O)cc1 (stereo partly specified) | > 10 | > 10 | > 10 | > 10 | > 10 | > 10 | > 10 | – | – | –
C[C@@H](CO)CCC(=O)[C@@H](C)C1C[C@@H](O[C@H]2O[C@H](CO)[C@@H](O)[C@H](O)[C@H]2O[C@@H]2O[C@@H](C)[C@H](O)[C@@H](O)[C@H]2O)[C@H]2[C@@H]3CC[C@H]4C[C@@H](O)CC[C@]4(C)[C@H]3CC[C@]12C (stereo partly specified) | > 10 | > 10 | > 10 | > 10 | > 10 | > 10 | > 10 | – | – | –
C[C@@H](CO)CCC(=O)[C@@H](C)C1C[C@@H](O[C@@H]2O[C@H](CO)[C@@H](O)[C@H](O)[C@H]2O[C@@H]2O[C@@H](C)[C@H](O)[C@@H](O)[C@H]2O)[C@H]2[C@@H]3CC[C@H]4C[C@@H](O)CC[C@]4(C)[C@H]3CC[C@]12C (stereo partly specified) | > 10 | > 10 | > 10 | > 10 | > 10 | > 10 | > 10 | – | – | –
COc1ccc(C(=O)O[C@H]2[C@H](O[C@H]3CO[C@@H](O[C@@H]4CC([C@H](C)C(=O)CC[C@@H](C)CO)[C@@]5(C)CC[C@H]6[C@@H](CC[C@H]7C[C@@H](O)CC[C@@]76C)[C@H]45)[C@H](OC(C)=O)[C@H]3O)OC[C@@H](O)[C@@H]2O)cc1 (stereo partly specified) | > 10 | > 10 | > 10 | > 10 | > 10 | > 10 | > 10 | – | – | –
COc1ccc(C(=O)O[C@H]2[C@H](O[C@@H]3[C@@H](OC(C)=O)[C@H](O[C@@H]4CC([C@H](C)C(=O)CC[C@@H](C)CO)[C@@]5(C)CC[C@H]6[C@@H](CC[C@H]7C[C@@H](O)CC[C@@]76C)[C@H]45)OC[C@@H]3O)OC[C@@H](O)[C@@H]2O)cc1 (stereo partly specified) | 0.283 | 0.522 | 0.545 | 0.1 | 0.843 | 0.499 | 0.1 | – | – | –
COc1ccc(C(=O)O[C@H]2[C@H](O[C@@H]3[C@@H](OC(C)=O)[C@H](O[C@H]4C[C@H]5[C@@H]6CCC7C[C@@H](O)CC[C@]7(C)[C@H]6CC[C@]5(C)[C@@]4(O)[C@H](C)C(=O)CCC(C)C)OC[C@@H]3O)OC[C@@H](O)[C@@H]2O)cc1 (stereo partly specified) | – | – | – | – | – | – | – | 0.029 | 0.71 | 0.025
C[C@@H](CO)CCC(=O)[C@@H](C)C1C[C@H](O[C@H]2O[C@H](CO)[C@@H](O)[C@H](O)[C@H]2O[C@@H]2O[C@@H](C)[C@H](O)[C@@H](O)[C@H]2O)[C@H]2[C@@H]3CC[C@H]4C[C@@H](O)CC[C@]4(C)[C@H]3CC[C@]12C (stereo partly specified) | > 10 | > 10 | > 10 | > 10 | > 10 | > 10 | > 10 | – | – | –
C[C@@H](CO)CCC(=O)[C@@H](C)C1C[C@H](O[C@@H]2O[C@H](CO)[C@@H](O)[C@H](O)[C@H]2O[C@@H]2O[C@@H](C)[C@H](O)[C@@H](O)[C@H]2O)[C@H]2[C@@H]3CC[C@H]4C[C@@H](O)CC[C@]4(C)[C@H]3CC[C@]12C (stereo partly specified) | > 10 | > 10 | > 10 | > 10 | > 10 | > 10 | > 10 | – | – | –
C[C@@H]1CC[C@@]2(OC1)O[C@H]1C[C@H]3[C@@H]4CC=C5C[C@@H](O[C@@H]6O[C@H](CO)[C@@H](O[C@@H]7O[C@@H](C)[C@H](O)[C@@H](O)[C@H]7O)[C@H](O)[C@H]6O[C@@H]6O[C@@H](C)[C@H](O)[C@@H](O)[C@H]6O)CC[C@]5(C)[C@H]4CC[C@]3(C)[C@H]1[C@@H]2C [DIOSCIN] | 0.268 | 0.93 | 0.581 | 0.447 | 0.454 | 0.879 | 0.351 | – | – | –
